Assay results published in US9695155B2, “Herbicidal substituted pyrimidinyloxy benzene compounds” (E. I. DU PONT DE NEMOURS AND COMPANY, priority 2013, dated 2017).

Experiments:
Assay in all cases: Test F preemergence
Settings in all cases: 21 days, scale 0 to 100
[1] = system: barnyardgrass; format: in vivo, Echinochloa crus-galli
From the text: (§1) Seeds of plant species selected from bermudagrass (Cynodon dactylon), surinam grass (Brachiaria decumbens), large (Lg) crabgrass (Digitaria sanguinalis), crabgrass, naked (naked crabgrass, Digitaria nuda), foxtail, green (green foxtail, Setaria viridis), johnsongrass (Sorghum halepense), kochia (Kochia scoparia), morningglory (pitted morningglory, Ipomoea lacunosa), nutsedge, purple (purple nutsedge, Cyperus rotundus), ragweed (common ragweed, Ambrosia elatior), mustard, black (black mustard, Brassica nigra), guineagrass (Panicum maximum), dallisgrass (Paspalum dilatatum), barnyardgrass (Echinochloa crus-galli), sandbur (southern sandbur, Cenchrus echinatus), sowthistle (common sowthistle, Sonchus oleraceous), Italian ryegrass (Lolium multiflorum), signalgrass (broadleaf signalgrass, Brachiaria platyphylla), dayflower (Virginia (VA) dayflower, Commelina virginica), bluegrass (annual bluegrass, Poa annua), quackgrass (Elytrigia repens), mallow (common mallow, Malva sylvestris), buckwheat, wild (wild buckwheat, Polygonum convolvulus), leafy spurge (Euphorbia esula), chickweed (common chickweed, Stellaria media), wild poinsettia (Euphorbia heterophylla), and pigweed (Amaranthus retroflexus) were planted into a blend of loam soil and sand and treated preemergence with test chemicals formulated in a non-phytotoxic solvent mixture which included a surfactant.
(§2) Treated plants and controls were maintained in a greenhouse for 21 days, after which time all species were compared to controls and visually evaluated. Plant response ratings, summarized in Table F, are based on a scale of 0 to 100 where 0 is no effect and 100 is complete control. A dash (-) response means no test result.

[2] = system: Italian ryegrass; format: in vivo, Lolium multiflorum
From the text: as §1, §2

[3] = system: buckwheat, wild; format: in vivo, Polygonum convolvulus
From the text: as §1, §2

[4] = system: guineagrass; format: in vivo, Panicum maximum
From the text: as §1, §2

[5] = system: sowthistle; format: in vivo, Sonchus oleraceous
From the text: as §1, §2

[6] = system: mallow; format: in vivo, Malva sylvestris
From the text: as §1, §2

[7] = system: quackgrass; format: in vivo, Elytrigia repens
From the text: as §1, §2

N#Cc1cccc(Oc2ncc(Cl)cn2)c1-n1cc(C(F)(F)F)cn1 [Compound 58, 3-[(5-chloro-2-pyrimidinyl)oxy]-2-[4-(trifluoromethyl)-1H-pyrazol-1-yl]benzonitrile]
98: Plant response rating, Ryegrass, Italian ([2]; 62 g ai/ha) | Plant response rating, Mallow ([6]; 62 g ai/ha) | Plant response rating, Quackgrass ([7]; 62 g ai/ha)
50: Plant response rating, Quackgrass ([7]; 16 g ai/ha)
35: Plant response rating, Ryegrass, Italian ([2]; 16 g ai/ha)
60: Plant response rating, Mallow ([6]; 16 g ai/ha)
100: Plant response rating, Barnyardgrass ([1]; 31 g ai/ha) | Plant response rating, Barnyardgrass ([1]; 62 g ai/ha) | Plant response rating, Barnyardgrass ([1]; 125 g ai/ha) | Plant response rating, Barnyardgrass ([1]; 250 g ai/ha) | Plant response rating, Ryegrass, Italian ([2]; 125 g ai/ha) | Plant response rating, Ryegrass, Italian ([2]; 250 g ai/ha) | Plant response rating, Buckwheat, Wild ([3]; 31 g ai/ha) | Plant response rating, Buckwheat, Wild ([3]; 62 g ai/ha) | Plant response rating, Buckwheat, Wild ([3]; 125 g ai/ha) | Plant response rating, Buckwheat, Wild ([3]; 250 g ai/ha) | Plant response rating, Guineagrass ([4]; 16 g ai/ha) | Plant response rating, Guineagrass ([4]; 31 g ai/ha) | Plant response rating, Guineagrass ([4]; 62 g ai/ha) | Plant response rating, Guineagrass ([4]; 125 g ai/ha) | Plant response rating, Guineagrass ([4]; 250 g ai/ha) | Plant response rating, Sowthistle ([5]; 16 g ai/ha) | Plant response rating, Sowthistle ([5]; 31 g ai/ha) | Plant response rating, Sowthistle ([5]; 62 g ai/ha) | Plant response rating, Sowthistle ([5]; 125 g ai/ha) | Plant response rating, Sowthistle ([5]; 250 g ai/ha) | Plant response rating, Mallow ([6]; 31 g ai/ha) | Plant response rating, Mallow ([6]; 125 g ai/ha) | Plant response rating, Mallow ([6]; 250 g ai/ha) | Plant response rating, Quackgrass ([7]; 125 g ai/ha) | Plant response rating, Quackgrass ([7]; 250 g ai/ha)
70: Plant response rating, Barnyardgrass ([1]; 16 g ai/ha) | Plant response rating, Quackgrass ([7]; 31 g ai/ha)
95: Plant response rating, Ryegrass, Italian ([2]; 31 g ai/ha)
90: Plant response rating, Buckwheat, Wild ([3]; 16 g ai/ha)
